Experimental data taken from ChEMBL document CHEMBL1909046, “DrugMatrix in vitro pharmacology data”.

Key:
[1] = DRUGMATRIX: Phorbol Ester radioligand binding (ligand: [3H] PDBu); type: cell membranes, Mus musculus, ICR, Brain, Membrane; conditions: Not Active = under 50% inhibition at 10 µM
[2] = biological target: T1, Amine oxidase [flavin-containing] A (Homo sapiens, UniProt P21397); test: DRUGMATRIX: Monoamine Oxidase MAO-A enzyme inhibition (substrate: Kynuramine); parameters: species or system BTI-TN-5B1-4; conditions: Not Active = under 50% inhibition at 10 µM
T1 sequence (P21397 whole entry): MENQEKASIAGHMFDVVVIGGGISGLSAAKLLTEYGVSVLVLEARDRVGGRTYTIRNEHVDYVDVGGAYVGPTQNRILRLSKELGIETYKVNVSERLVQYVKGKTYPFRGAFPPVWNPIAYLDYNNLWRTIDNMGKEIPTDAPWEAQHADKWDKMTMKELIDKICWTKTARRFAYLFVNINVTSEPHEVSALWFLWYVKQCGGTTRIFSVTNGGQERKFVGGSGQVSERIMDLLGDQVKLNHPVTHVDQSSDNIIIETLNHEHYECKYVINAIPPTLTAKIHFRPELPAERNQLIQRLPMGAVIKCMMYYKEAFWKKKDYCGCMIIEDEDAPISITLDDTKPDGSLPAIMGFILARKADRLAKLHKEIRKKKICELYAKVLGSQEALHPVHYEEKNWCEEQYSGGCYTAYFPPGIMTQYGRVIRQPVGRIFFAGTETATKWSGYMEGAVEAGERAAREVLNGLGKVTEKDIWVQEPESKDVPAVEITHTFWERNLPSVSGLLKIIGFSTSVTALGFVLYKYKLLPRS

[3] = DRUGMATRIX: GABAA, Muscimol, Central radioligand binding (ligand: [3H] Muscimol); type: cell membranes, Rattus norvegicus, Wistar, Brain, Membrane; conditions: Not Active = under 50% inhibition at 10 µM
D(1A) dopamine receptor = D(1A) dopamine receptor (Homo sapiens, UniProt P21728); test: DRUGMATRIX: Dopamine D1 radioligand binding (ligand: [3H] SCH-23390); type: cell membranes, CHO, Membrane; conditions: cho; Not Active = under 50% inhibition at 10 µM
[4] = biological target: Mitogen-activated protein kinase 3 (Homo sapiens, UniProt P27361); test: DRUGMATRIX: Protein Serine/Threonine Kinase, ERK1 enzyme inhibition (substrate: Myelin Basic Protein); parameters: species or system Escherichia coli; conditions: Not Active = under 50% inhibition at 10 µM
[5] = DRUGMATRIX: Imidazoline I2, Central radioligand binding (ligand: [3H] Idazoxan); type: cell membranes, Rattus norvegicus, Wistar, Cerebral cortex, Membrane; conditions: Not Active = under 50% inhibition at 10 µM
[6] = DRUGMATRIX: Glutamate, AMPA radioligand binding (ligand: [3H] AMPA); type: cell membranes, Rattus norvegicus, Wistar, Cerebral cortex, Membrane; conditions: Not Active = under 50% inhibition at 10 µM

D(1A) dopamine receptor, sequence (P21728 whole entry): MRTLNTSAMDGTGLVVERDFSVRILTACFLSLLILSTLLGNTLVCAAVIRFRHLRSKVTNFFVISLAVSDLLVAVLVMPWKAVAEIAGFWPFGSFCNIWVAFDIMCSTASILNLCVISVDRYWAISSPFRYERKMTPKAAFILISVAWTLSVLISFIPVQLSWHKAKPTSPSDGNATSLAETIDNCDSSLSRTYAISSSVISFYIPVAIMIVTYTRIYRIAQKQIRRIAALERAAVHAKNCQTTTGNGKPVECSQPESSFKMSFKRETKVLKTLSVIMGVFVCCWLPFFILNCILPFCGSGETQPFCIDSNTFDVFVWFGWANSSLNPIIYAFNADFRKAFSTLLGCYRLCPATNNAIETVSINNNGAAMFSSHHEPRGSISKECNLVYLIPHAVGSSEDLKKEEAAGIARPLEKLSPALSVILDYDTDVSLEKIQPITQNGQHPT
Mitogen-activated protein kinase 3, sequence (P27361 whole entry): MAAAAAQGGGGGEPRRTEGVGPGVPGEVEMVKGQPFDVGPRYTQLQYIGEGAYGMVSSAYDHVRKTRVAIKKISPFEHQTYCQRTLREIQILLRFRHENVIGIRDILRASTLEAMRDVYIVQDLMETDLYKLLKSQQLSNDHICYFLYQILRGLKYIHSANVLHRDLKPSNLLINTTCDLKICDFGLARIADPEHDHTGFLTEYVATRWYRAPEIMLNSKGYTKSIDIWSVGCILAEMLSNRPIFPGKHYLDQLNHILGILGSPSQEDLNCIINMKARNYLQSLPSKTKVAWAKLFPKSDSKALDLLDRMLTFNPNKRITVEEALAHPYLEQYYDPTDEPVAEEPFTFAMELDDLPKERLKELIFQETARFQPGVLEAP

| Compound | IC50 [1] | Ki [1] | IC50 ([2]; bti-tn-5b1-4) | IC50 [3] | Ki [3] | IC50 (D(1A) dopamine receptor) | IC50 [4] | IC50 [5] | Ki [5] | IC50 [6] | Ki [6] | IC50 ([5]; read-out: IC50) [µM] | Ki ([5]; read-out: Ki) [µM] | IC50 ([2]; read-out: IC50) [µM] |
| --- | --- | --- | --- | --- | --- | --- | --- | --- | --- | --- | --- | --- | --- | --- |
| Oc1ccccc1 [PHENOL] | Not Active | Not Active | Not Active | Not Active | Not Active | Not Active | Not Active | Not Active | Not Active | Not Active | Not Active | – | – | – |
| Oc1ncnc2[nH]ncc12 [ALLOPURINOL] | Not Active | Not Active | Not Active | Not Active | Not Active | Not Active | Not Active | Not Active | Not Active | Not Active | Not Active | – | – | – |
| COC(=O)Nc1nc2ccc(Sc3ccccc3)cc2[nH]1 [FENBENDAZOLE] | Not Active | Not Active | Not Active | Not Active | Not Active | Not Active | Not Active | Not Active | Not Active | Not Active | Not Active | – | – | – |
| C[C@@H]1[C@H](O)[C@@H](C)/C=C/C=C/C=C/C=C/C=C/C=C/C=C/[C@H](O[C@@H]2O[C@H](C)[C@@H](O)[C@H](N)[C@@H]2O)C[C@@H]2O[C@](O)(C[C@@H](O)C[C@@H](O)[C@H](O)CC[C@@H](O)C[C@@H](O)CC(=O)O[C@H]1C)C[C@H](O)[C@H]2C(=O)O [AMPHOTERICIN B] | Not Active | Not Active | Not Active | Not Active | Not Active | Not Active | – | Not Active | Not Active | Not Active | Not Active | – | – | – |
| CCO [ALCOHOL] | Not Active | Not Active | Not Active | Not Active | Not Active | Not Active | Not Active | Not Active | Not Active | Not Active | Not Active | – | – | – |
| COc1cc(/C=C/C(=O)O)ccc1O [FERULATE] | Not Active | Not Active | Not Active | Not Active | Not Active | Not Active | Not Active | Not Active | Not Active | Not Active | Not Active | – | – | – |
| CNC[C@H](O)c1ccc(O)c(O)c1 [EPINEPHRINE] | Not Active | Not Active | Not Active | Not Active | Not Active | Not Active | Not Active | – | – | Not Active | Not Active | 0.232 | 0.154 | – |
| CC1(COc2ccc(CC3SC(=O)NC3=O)cc2)CCCCC1 (stereo unspecified) [CIGLITAZONE] | Not Active | Not Active | – | Not Active | Not Active | – | Not Active | Not Active | Not Active | Not Active | Not Active | – | – | 29.2 |
| NC(N)=Nc1nc(CSCCC(N)=NS(N)(=O)=O)cs1 [FAMOTIDINE] | Not Active | Not Active | Not Active | Not Active | Not Active | Not Active | Not Active | Not Active | Not Active | Not Active | Not Active | – | – | – |
| Nc1nc(F)nc2c1ncn2[C@@H]1O[C@H](CO)[C@@H](O)[C@@H]1O [FLUDARABINE] | Not Active | Not Active | Not Active | Not Active | Not Active | Not Active | Not Active | Not Active | Not Active | Not Active | Not Active | – | – | – |
| NC(=O)NC(=O)Cc1ccccc1 [PHENACEMIDE] | Not Active | Not Active | Not Active | Not Active | Not Active | Not Active | Not Active | Not Active | Not Active | Not Active | Not Active | – | – | – |
| Nc1ccc(C(=O)O)c(O)c1 [AMINOSALICYLIC ACID] | Not Active | Not Active | Not Active | Not Active | Not Active | Not Active | Not Active | Not Active | Not Active | Not Active | Not Active | – | – | – |
| O=c1[nH]cnc2c1ncn2[C@H]1CC[C@@H](CO)O1 [DIDANOSINE] | Not Active | Not Active | Not Active | Not Active | Not Active | Not Active | Not Active | Not Active | Not Active | Not Active | Not Active | – | – | – |
| NC(=O)CN1CCCC1=O | Not Active | Not Active | Not Active | Not Active | Not Active | Not Active | Not Active | Not Active | Not Active | Not Active | Not Active | – | – | – |
| Clc1cc(Cl)c(OCC#CI)cc1Cl [HALOPROGIN] | Not Active | Not Active | Not Active | Not Active | Not Active | – | Not Active | Not Active | Not Active | Not Active | Not Active | – | – | – |
| O=C(NCCN1CCOCC1)c1ccc(Cl)cc1 [MOCLOBEMIDE] | Not Active | Not Active | Not Active | Not Active | Not Active | Not Active | Not Active | Not Active | Not Active | Not Active | Not Active | – | – | – |
| Cc1c(N)nc([C@H](CC(N)=O)NC[C@H](N)C(N)=O)nc1C(=O)N[C@H](C(=O)N[C@H](C)[C@@H](O)[C@H](C)C(=O)N[C@H](C(=O)NCCc1nc(-c2nc(C(=O)NCCC[S+](C)C)cs2)cs1)[C@@H](C)O)[C@@H](O[C@@H]1O[C@@H](CO)[C@@H](O)[C@H](O)[C@@H]1O[C@H]1O[C@H](CO)[C@@H](O)[C@H](OC(N)=O)[C@@H]1O)c1c[nH]cn1.[Br-] [BLEOMYCIN A2] | Not Active | Not Active | Not Active | Not Active | Not Active | Not Active | Not Active | Not Active | Not Active | Not Active | Not Active | – | – | – |
| CC(C)Cc1ccc([C@H](C)C(=O)O)cc1 [DEXIBUPROFEN] | Not Active | Not Active | Not Active | Not Active | Not Active | Not Active | Not Active | Not Active | Not Active | Not Active | Not Active | – | – | – |
| COc1ccc(C[C@H](N)C(=O)N[C@H]2[C@@H](O)[C@H](n3cnc4c(N(C)C)ncnc43)O[C@@H]2CO)cc1 [PUROMYCIN] | Not Active | Not Active | Not Active | Not Active | Not Active | Not Active | Not Active | Not Active | Not Active | Not Active | Not Active | – | – | – |
| CN(Cc1cc(Br)cc(Br)c1N)C1CCCCC1 [BROMHEXINE] | Not Active | Not Active | Not Active | Not Active | Not Active | Not Active | – | Not Active | Not Active | Not Active | Not Active | – | – | – |
